The values that follow come from article PMC6971011, “Conformational changes in Apolipoprotein N-acyltransferase (Lnt)” (Scientific Reports, 2020).

The assay has as its target T1, Apolipoprotein N-acyltransferase (Lnt); Lnt-C1, Lnt-C2 (Escherichia coli, UniProt P23930).
T1 construct: full length; C1: fifteen-residue C-terminal tail with His8-tag kept; C2: N-terminal His6-tag TEV-cleaved, two extra N-terminal residues; expressed in E. coli C41, detergent-purified
The experiment in a line: X-ray crystallography ([…] Å) and LC-MS/MS of tryptic peptide. The assay is classed as binding. Conditions: covalent; thioester on active site C387 (acyl-enzyme intermediate, co-purified from expression host); Lnt-C1 chain B; vapor diffusion, pH 6.4.

With `CCCCCCCCCCCCCCCC(=O)O` [palmitate], the “X-ray crystallography (3.5 Å) and LC-MS/MS of tryptic peptide” value is reported as “mass spectrometry analysis (Fig. 3D) on purified Lnt that identified a palmitoyl modification at position C387”.
